Each structure is given as a SMILES string.

The test system of one assay is calcium homeostasis. The note with it: in animals and humans; cited from earlier work.
The subject of a further assay is vitamin D receptor. Particulars: U.S. Pat. No. 5,397,776; cited from earlier work.
For assay [1] the following is noted: U.S. Pat. No. 5,397,776; cited from earlier work.
For assay [2], the system named is progesterone receptor (PR). Particulars: U.S. Pat. No. 5,397,776; cited from earlier work.
The target in another assay is T1, progesterone receptor (Homo sapiens, UniProt P06401).
T1 construct: The source of the progesterone receptor is the cytosolic fraction of MCF-7 cells (human breast cancer cell line); endogenous in cells; host or cells: MCF-7 cells (human breast adenocarcinoma), cytosolic fraction, 10 nM estradiol for 24 h before harvest
T1 sequence (P06401 1-933): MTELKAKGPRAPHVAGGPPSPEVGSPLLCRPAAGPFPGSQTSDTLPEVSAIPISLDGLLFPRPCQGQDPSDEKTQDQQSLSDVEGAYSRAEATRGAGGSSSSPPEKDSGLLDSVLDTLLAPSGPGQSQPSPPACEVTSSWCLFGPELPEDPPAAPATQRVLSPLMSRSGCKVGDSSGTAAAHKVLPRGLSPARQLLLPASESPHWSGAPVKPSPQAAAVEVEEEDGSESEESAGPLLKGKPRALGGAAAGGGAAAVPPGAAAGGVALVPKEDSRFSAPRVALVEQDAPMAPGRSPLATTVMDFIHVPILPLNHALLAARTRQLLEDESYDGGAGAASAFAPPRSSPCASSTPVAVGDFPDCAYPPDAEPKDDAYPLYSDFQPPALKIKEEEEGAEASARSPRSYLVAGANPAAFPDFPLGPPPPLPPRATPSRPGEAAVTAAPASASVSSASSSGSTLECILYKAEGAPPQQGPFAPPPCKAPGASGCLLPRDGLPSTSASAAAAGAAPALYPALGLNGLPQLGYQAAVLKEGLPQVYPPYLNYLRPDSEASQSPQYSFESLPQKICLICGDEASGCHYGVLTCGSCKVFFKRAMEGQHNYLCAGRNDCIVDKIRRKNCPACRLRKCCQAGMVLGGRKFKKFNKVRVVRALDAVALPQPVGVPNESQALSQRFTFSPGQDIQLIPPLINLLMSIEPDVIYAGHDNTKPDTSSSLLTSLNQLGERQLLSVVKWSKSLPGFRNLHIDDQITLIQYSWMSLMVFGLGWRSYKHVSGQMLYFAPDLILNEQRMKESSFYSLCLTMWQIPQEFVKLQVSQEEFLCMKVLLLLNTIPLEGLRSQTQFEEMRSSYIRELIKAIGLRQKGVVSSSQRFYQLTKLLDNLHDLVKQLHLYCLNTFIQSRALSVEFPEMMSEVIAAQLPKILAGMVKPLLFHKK
Kind of assay: Competitive binding of test compounds vs 3H-R5020 to the progesterone receptor (MCF-7 cytosol). The note with it: for Total Binding (DPM) ± S.D.: 3H-R5020 (20 nM) bound; for Total Binding (DPM) ± S.D. / inhibition: competitor at 400× fold excess, 12-14 hours on ice; for binding to the PR (in words): compared with 20-oxopregnacalciferol where stated; for inhibition: of 3H-R5020 (20 nM) binding. How it is done:
Cell culture and extract preparation: Human Breast Adenocarcinoma cells (MCF-7 cells) extract is used as the progesterone receptor source. The cells were grown to confluency in phenol red-free DMEM with 10% calf serum. After replacing the medium, the cells were dosed with 10 nM Estradiol and incubated for an additional 24 hours to induce the expression of the progesterone receptor. The cells were washed with Hanks Balanced Salt Solution (HBSS: 5.0 mM KCl, 0.3 mM KH2 PO4, 138 mM NaCl, 4.0 mM NaHCO3, 0.3 mM Na2HPO4, 5.6 mM D-Glucose, 1.3 mM CaCl2 and 0.5 mM MgCl2.6H2O) and then incubated with Ca/Mg-free HBSS+1 mM EDTA for 5-10 minutes at 37° C. After harvesting, the cells were pelleted by centifugation for 5.0 minutes at 4.0° C. The cell pellet was then resuspended in TDG buffer (10 mM Tris-HCl, pH 7.4, 0.5 mM DTT and 50% Glycerol) and sonicated for 15 seconds. The cytosolic fraction was obtained by centrifugation at 50,000 RPM for 20 minutes in TLA 100.2 rotor. The supernatent (cytosol) was removed and stored on ice for use in the binding assay. The Cytosolic fraction was always prepared fresh. Binding Assay: The ability of the test compounds to compete for binding to the progesterone receptor was tested as follows: 1--The incubation mix consisted of the following: 100 μl 3H-R5020 (20 nM) 5 μl Ethanol or test compound in the ethanol providing a 400 fold excess of compound 100 μl MCF-7 Cell Extract 2--The mixture was incubated 12-14 hours on ice. 3--250 μl of 50% HAP slurry was added+3 mL of TDG buffer. 4--The samples are allowed to sit on ice for 30 minutes with vortexing every 10 minutes. 5--The HAP was pelleted by centrifugation at 1500 rpms for 3 minutes. 6--The pellet was washed three more times with TDG buffer. 7--The final pellet was resuspended in 1 ml Ethanol, vortexed and allowed to sit at room temperature for 30 minutes with vortexing every 10 minutes. 8--The samples were finally centrifuged at 2000 rpms. The supernatent was removed, mixed with counting fluid and the amount of radioactivity in each sample was determined by counting in a beta scintillation counter. 1--The source of the progesterone receptor is the cytosolic fraction of MCF-7 cells (human breast cancer cell line) which were dosed with Estradiol 24 hours prior to harvesting and processing. 2--The cytosolic fractions used in all the binding measurements were freshly prepared. No frozen extracts were used. 3--All competitive compounds were added at 400× fold excess of the labelled R5020.

In another assay the test system is glucocorticosteroid. The note with it: Teutsch et al, U.S. Pat. No. 4,386,085; cited from earlier work.
The subject of a further assay is pregnancy. Particulars: used in conjunction with synthetic prostaglandins; cited from earlier work.
Another assay has as its system progesterone. The note with it: Teutsch et al, U.S. Pat. No. 4,386,085; cited from earlier work.

In the case of `C=C1/C(=C\C=C2/CCC[C@]3(C)[C@@H]([C@H](C)/C=C/[C@H](C)C(C)(C)O)CC[C@@H]23)C[C@@H](O)C[C@@H]1O` [1α,25-dihydroxyvitamin D2], the “regulation of calcium homeostasis (in words)” value in the assay with calcium homeostasis is “highly potent regulators of calcium homeostasis”.
Regarding `C=C1/C(=C\C=C2/CCC[C@]3(C)[C@@H]([C@H](C)CCCC(C)(C)O)CC[C@@H]23)C[C@@H](O)C[C@@H]1O` [1α,25-dihydroxyvitamin D3], the “regulation of calcium homeostasis (in words)” value in the assay with calcium homeostasis is on record as “highly potent regulators of calcium homeostasis”.
As to `C=C1/C(=C\C=C2/CCC[C@]3(C)[C@@H](C(C)=O)CC[C@@H]23)C[C@@H](O)C[C@@H]1O` [1α-hydroxy-20-oxopregnacaliciferol], in the assay with vitamin D receptor, the “binding to the vitamin D receptor (in words)” value was “nor did they bind to the vitamin D receptor”. For the same molecule, in assay [1], the “calcemic activity (in words)” value is recorded as “None of the above three compounds had any calcemic activity”. The “binding to the PR (in words)” value in assay [2] is listed as “prevents binding to the PR”.
Consider `C[C@H](CO)[C@H]1CC[C@H]2/C(=C/C=C3CCCCC3)CCC[C@]12C` [4a, 19-Nor-3-desoxy-22-hydroxy-homopregnacalciferol], for which, at progesterone receptor, the “Total Binding (DPM) ± S.D.” value is 4139 ± 62 DPM; the “binding to the PR (in words)” value was “did also bind to the PR”; the inhibition – broadly, the percentage by which the read-out fell short of the control – came out at 13%.
On to `C[C@H](CO)[C@H]1CC[C@H]2/C(=C/C=C3CCC4(CC3)OCCO4)CCC[C@]12C` [4b, 19-Nor-3-desoxy-2-ethylene ketal-22-hydroxyhomopregnacalciferol], for which, on progesterone receptor, the “Total Binding (DPM) ± S.D.” value was 2881 ± 152 DPM, the “binding to the PR (in words)” value was “did also bind to the PR but to a lesser degree” and the inhibition turned out to be 40%.
For the molecule `C[C@H](C=O)[C@H]1CC[C@H]2/C(=C/C=C3CCCCC3)CCC[C@]12C` [5a, 19-Nor-3-desoxy-homopregnacalciferol 22-aldehyde], at progesterone receptor, the “Total Binding (DPM) ± S.D.” value is recorded as 3045 ± 90 DPM, the “binding to the PR (in words)” value was “did also bind to the PR” and the inhibition amounted to 36%. Further, at progesterone receptor (compared with 20-ketone 6a), the “binding to the PR, times more than the 20-ketone 6a” value came to 1.5 times.
As for `C[C@H](C=O)[C@H]1CC[C@H]2/C(=C/C=C3CCC4(CC3)OCCO4)CCC[C@]12C` [5b, 19-Nor-3-desoxy-2-ethylene ketal-homopregnacalciferol 22-aldehyde], on progesterone receptor, the “Total Binding (DPM) ± S.D.” value is 2546 ± 120 DPM, the “binding to the PR (in words)” value was “did also bind to the PR but to a lesser degree” and the inhibition amounted to 47%.
In the case of `CC(=O)[C@H]1CC[C@H]2/C(=C/C=C3CCCCC3)CCC[C@]12C` [6a, 19-Nor-3-desoxy-20-oxopregnacalciferol], on progesterone receptor, the “Total Binding (DPM) ± S.D.” value is given as 3616 ± 171 DPM and the inhibition stood at 24%. For the same molecule, the “binding to the PR, lesser degree than 20-oxopregnacalciferol” value at progesterone receptor (compared with previously synthesized 20-oxopregnacalciferol) was 40%.
`CC(=O)[C@H]1CC[C@H]2/C(=C/C=C3CCC4(CC3)OCCO4)CCC[C@]12C` [6b, 19-Nor-3-desoxy-2-ethylene ketal-20-oxopregna-calciferol]: on progesterone receptor, the “Total Binding (DPM) ± S.D.” value stood at 2531 ± 165 DPM, the “binding to the PR (in words)” value is listed as “did also bind to the PR but to a lesser degree” and the inhibition worked out at 47%.
The matching figures for `CC(=O)[C@H]1CC[C@H]2/C(=C/C=C3CCC(=O)CC3)CCC[C@]12C` [6c, 19-Nor-3-desoxy-2,20-dioxopregnacalciferol]: 2036 ± 133 DPM, “almost the same binding activity to the PR” and 58%.
As to `CC(=O)[C@H]1CC[C@H]2/C(=C/C=C3C[C@@H](O)C[C@H](O)C3)CCC[C@]12C` [19-nor-1α-hydroxy-20-oxopregnacalciferol], the “binding to the vitamin D receptor (in words)” value in the assay on vitamin D receptor is given as “nor did they bind to the vitamin D receptor”. Further, the “calcemic activity (in words)” value in assay [1] is “None of the above three compounds had any calcemic activity”. For the same molecule, the “binding to the PR (in words)” value in assay [2] is “prevents binding to the PR”.
For the molecule `C=C1CC[C@H](O)C/C1=C/C=C1\CCC[C@]2(C)[C@@H](C(C)=O)CC[C@@H]12` [20-oxopregnacalciferol, 20-oxo-pregnacalciferol], the “binding to the vitamin D receptor (in words)” value in the assay on vitamin D receptor is reported as “nor did they bind to the vitamin D receptor”. Further, the “calcemic activity (in words)” value in assay [1] is on record as “None of the above three compounds had any calcemic activity”. The “binding to the PR (in words)” value in assay [2] is on record as “did bind to the PR”. Besides, on progesterone receptor, the “Total Binding (DPM) ± S.D.” value is reported as 1950 ± 170 DPM and the inhibition worked out at 59%.
With `CCC(=O)[C@@]1(C)CC[C@H]2[C@@H]3CCC4=CC(=O)CCC4=C3CC[C@@]21C` [R5020, reference compound], the “Total Binding (DPM) ± S.D.” value on progesterone receptor is listed as 750 ± 231 DPM.
Consider `CC#C[C@]1(O)CC[C@H]2[C@@H]3CCC4=CC(=O)CCC4=C3[C@@H](c3ccc(N(C)C)cc3)C[C@@]21C` [RU 486], for which, in the assay on glucocorticosteroid, the “antiglucocorticosteroid activity (in words)” value was “strong”. In addition, in the assay on pregnancy, the “termination of pregnancy (in words)” value is listed as “terminates pregnancy”. Also, the “antiprogesterone activity (in words)” value in the assay with progesterone was “strong”.

Values taken from patent publication US5614512A, “20-Oxo-pregnacalciferol analogs with binding affinity to the progesterone receptor” (Wisconsin Alumni Research Foundation, priority 1995, dated 1997).
